Paper doi:10.1101/822718v2 (biorxiv, 2020)
pEC50, pIC50: −log10 of the molar value. Where two headings read alike, the source gives them in different places.

Columns and labels:
[1] = biological target: T1, full-length elephant shark GR (Callorhinchus milii, UniProt V9KGN8); experiment: cell-based; parameters: species or system HEK293
T1 sequence (V9KGN8 1-704): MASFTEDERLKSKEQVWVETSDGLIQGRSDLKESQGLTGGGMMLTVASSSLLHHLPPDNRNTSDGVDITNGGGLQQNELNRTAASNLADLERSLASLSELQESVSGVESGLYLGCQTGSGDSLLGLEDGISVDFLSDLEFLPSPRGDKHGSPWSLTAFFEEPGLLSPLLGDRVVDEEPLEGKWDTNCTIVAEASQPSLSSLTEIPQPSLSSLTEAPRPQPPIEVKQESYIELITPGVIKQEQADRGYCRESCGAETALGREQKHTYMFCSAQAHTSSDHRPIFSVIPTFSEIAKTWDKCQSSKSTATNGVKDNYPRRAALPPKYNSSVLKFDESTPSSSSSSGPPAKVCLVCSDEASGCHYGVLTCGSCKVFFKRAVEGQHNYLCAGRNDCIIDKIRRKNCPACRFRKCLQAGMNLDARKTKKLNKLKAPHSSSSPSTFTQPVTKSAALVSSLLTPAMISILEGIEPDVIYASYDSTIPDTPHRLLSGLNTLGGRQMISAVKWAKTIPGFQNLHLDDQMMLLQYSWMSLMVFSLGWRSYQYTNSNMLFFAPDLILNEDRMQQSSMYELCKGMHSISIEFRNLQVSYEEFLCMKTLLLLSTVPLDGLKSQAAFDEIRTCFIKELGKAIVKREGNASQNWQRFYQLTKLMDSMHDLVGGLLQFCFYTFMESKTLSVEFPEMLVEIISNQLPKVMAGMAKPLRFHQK

[2] = biological target: T2, truncated elephant shark MR (Elephant shark MR-DBD-hinge-LBD) (Callorhinchus milii, UniProt A0A4W3I5J5); experiment: cell-based; parameters: species or system HEK293
T2 sequence (A0A4W3I5J5 575-956 limits assumed): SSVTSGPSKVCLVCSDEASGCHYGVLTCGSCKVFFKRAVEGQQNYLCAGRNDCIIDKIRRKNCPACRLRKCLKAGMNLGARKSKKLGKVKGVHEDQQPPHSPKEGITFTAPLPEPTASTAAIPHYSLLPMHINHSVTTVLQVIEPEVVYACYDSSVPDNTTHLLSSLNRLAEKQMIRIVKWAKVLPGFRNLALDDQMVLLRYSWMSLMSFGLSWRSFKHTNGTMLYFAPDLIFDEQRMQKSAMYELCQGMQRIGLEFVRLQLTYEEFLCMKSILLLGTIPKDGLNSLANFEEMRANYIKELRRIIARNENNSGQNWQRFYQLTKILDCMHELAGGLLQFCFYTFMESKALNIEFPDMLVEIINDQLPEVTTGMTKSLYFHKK

[3] = biological target: T3, full-length elephant shark MR (Callorhinchus milii, UniProt A0A4W3I5J5); experiment: cell-based; parameters: species or system HEK293
T3 sequence (A0A4W3I5J5 1-956): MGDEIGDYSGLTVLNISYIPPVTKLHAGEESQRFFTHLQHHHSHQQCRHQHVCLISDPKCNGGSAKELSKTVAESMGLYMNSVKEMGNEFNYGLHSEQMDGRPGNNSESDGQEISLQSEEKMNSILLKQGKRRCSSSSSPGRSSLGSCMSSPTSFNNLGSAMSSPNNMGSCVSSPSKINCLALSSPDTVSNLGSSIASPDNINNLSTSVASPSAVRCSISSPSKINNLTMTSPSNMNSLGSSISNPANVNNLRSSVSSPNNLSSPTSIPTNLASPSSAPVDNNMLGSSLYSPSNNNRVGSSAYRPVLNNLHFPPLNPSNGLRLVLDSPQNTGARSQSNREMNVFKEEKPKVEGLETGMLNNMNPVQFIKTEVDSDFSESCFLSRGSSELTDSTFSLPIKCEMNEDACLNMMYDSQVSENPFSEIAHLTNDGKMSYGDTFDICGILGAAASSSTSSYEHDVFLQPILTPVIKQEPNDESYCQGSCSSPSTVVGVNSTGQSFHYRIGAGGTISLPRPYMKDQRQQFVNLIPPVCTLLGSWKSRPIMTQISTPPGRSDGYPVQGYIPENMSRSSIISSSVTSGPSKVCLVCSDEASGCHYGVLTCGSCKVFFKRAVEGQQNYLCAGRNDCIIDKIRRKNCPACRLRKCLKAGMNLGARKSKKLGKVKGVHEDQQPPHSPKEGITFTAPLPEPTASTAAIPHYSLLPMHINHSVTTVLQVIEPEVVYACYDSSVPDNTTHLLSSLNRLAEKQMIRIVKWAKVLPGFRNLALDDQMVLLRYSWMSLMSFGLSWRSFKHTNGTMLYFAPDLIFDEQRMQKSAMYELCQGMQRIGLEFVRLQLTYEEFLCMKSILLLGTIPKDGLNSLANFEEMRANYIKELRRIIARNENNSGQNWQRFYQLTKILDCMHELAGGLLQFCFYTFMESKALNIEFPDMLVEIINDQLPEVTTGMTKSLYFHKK

[4] = biological target: truncated elephant shark MR (Elephant shark MR-DBD-hinge-LBD) (Callorhinchus milii, UniProt A0A4W3I5J5); experiment: cell-based
[5] = system: Elephant shark Chimera GR-NTD+MR-DBD-hinge-LBD; settings: agonist
[6] = biological target: T4, truncated elephant shark GR (Elephant shark GR-DBD-hinge-LBD) (Callorhinchus milii, UniProt V9KGN8); experiment: cell-based; parameters: species or system HEK293
T4 sequence (V9KGN8 346-704 limits assumed): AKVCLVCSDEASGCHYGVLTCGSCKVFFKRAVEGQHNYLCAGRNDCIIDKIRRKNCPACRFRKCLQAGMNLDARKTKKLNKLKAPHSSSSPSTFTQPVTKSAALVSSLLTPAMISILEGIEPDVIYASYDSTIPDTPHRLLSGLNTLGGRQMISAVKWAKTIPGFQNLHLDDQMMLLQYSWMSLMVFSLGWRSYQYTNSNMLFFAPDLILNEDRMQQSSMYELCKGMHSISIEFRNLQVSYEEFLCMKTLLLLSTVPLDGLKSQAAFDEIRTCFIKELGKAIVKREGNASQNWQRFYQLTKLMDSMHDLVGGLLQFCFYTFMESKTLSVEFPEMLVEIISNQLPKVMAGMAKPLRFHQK

[7] = biological target: T1, full-length elephant shark GR; experiment: transactivation assay, MMTV-luciferase reporter, HEK293 cells; assay type: cell-based
[8] = biological target: T2, truncated elephant shark MR (Elephant shark MR-DBD-hinge-LBD); experiment: cell-based; parameters: species or system HEK293; remark: listed apart in the source
[9] = biological target: T1, full-length elephant shark GR; experiment: inhibition of dexamethasone-activated luciferase reporter, HEK293 cells; assay type: cell-based
[10] = biological target: T1, full-length elephant shark GR; experiment: luciferase reporter transactivation, HEK293 cells; assay type: cell-based
[11] = biological target: T5, GAL4-DBD+elephant shark GR-hinge-LBD (Callorhinchus milii, UniProt V9KGN8); experiment: cell-based; parameters: species or system HEK293
T5 sequence (V9KGN8 422-704 limits assumed): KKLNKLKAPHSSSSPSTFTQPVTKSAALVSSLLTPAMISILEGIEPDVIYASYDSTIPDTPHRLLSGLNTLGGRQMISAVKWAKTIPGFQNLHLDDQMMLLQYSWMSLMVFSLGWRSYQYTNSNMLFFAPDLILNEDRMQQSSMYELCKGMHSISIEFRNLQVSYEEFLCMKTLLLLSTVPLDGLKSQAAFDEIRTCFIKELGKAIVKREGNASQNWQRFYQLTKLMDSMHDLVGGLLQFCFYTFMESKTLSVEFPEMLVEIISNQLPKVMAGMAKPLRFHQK

[12] = system: Elephant shark Chimera MR-NTD+GR-DBD-hinge-LBD; experiment: transactivation assay, MMTV-luciferase reporter, HEK293 cells; assay type: cell-based, Callorhinchus milii; settings: agonist
[13] = HEK293, read-out: DOC % Relative Induction, GR
[14] = HEK293, read-out: DOC % Relative Induction, MR
[15] = HEK293, read-out: Aldo % Relative Induction, GR
[16] = HEK293, read-out: Corticosterone % Relative Induction, GR
[17] = HEK293, read-out: Corticosterone % Relative Induction, MR
[18] = HEK293, read-out: Cortisol % Relative Induction, GR
[19] = HEK293, read-out: Cortisol % Relative Induction, MR
[20] = HEK293, read-out: Prog % Relative Induction, MR

Compound: C[C@]12CC[C@H]3[C@@H](CCC4=CC(=O)CC[C@@]43C)[C@@H]1CC[C@@H]2C(=O)CO [11-deoxycorticosterone]
- Emax [1, 13]: 53%
- Emax [2, 14]: 77%
- Emax [3, 14]: 86%
- pEC50 [4]: 10.00
- pEC50 [5]: 10.52
- Emax [6, 13]: 30%
- pEC50 [7]: ~7.55

Compound: CC(=O)[C@H]1CC[C@H]2[C@@H]3CCC4=CC(=O)CC[C@@H]4[C@H]3CC[C@]12C [19norProg]
- pEC50 [8]: 9.70
- Emax ([3]; HEK293, read-out: 19norProg % Relative Induction, MR): 79%

Compound: CC#C[C@]1(O)CC[C@H]2[C@@H]3CCC4=CC(=O)CCC4=C3[C@@H](c3ccc(N(C)C)cc3)C[C@@]21C [RU486]
- pIC50 [9]: 8.66
- pEC50 [10]: 8.06

Compound: C[C@]12CCC(=O)C=C1CC[C@@H]1[C@@H]2[C@@H](O)C[C@]2(C=O)[C@@H](C(=O)CO)CC[C@@H]12 [aldosterone]
- pEC50 [8]: 9.59
- Emax [1, 15]: 92%
- Emax [6, 15]: 109%
- pEC50 [7]: ~7.62
- Emax [11, 15]: 81%

Compound: C[C@]12C[C@H](O)[C@H]3[C@@H](CCC4=CC(=O)CC[C@@]43C)[C@@H]1CC[C@@H]2C(=O)CO [corticosterone]
- pEC50 [8]: 9.24
- pEC50 [12]: 7.89
- Emax [1, 16]: 100%
- Emax [2, 17]: 111%
- Emax [3, 17]: 88%
- Emax [6, 16]: 100%
- Emax [11, 16]: 100%

Compound: C[C@]12CCC(=O)C=C1CC[C@@H]1[C@@H]2[C@@H](O)C[C@@]2(C)[C@H]1CC[C@]2(O)C(=O)CO [cortisol]
- pEC50 [8]: 8.96
- Emax [1, 18]: 88%
- Emax [2, 19]: 117%
- Emax [3, 19]: 118%
- Emax [6, 18]: 112%
- pEC50 [7]: ~7.46

Compound: CC(=O)[C@H]1CC[C@H]2[C@@H]3CCC4=CC(=O)CC[C@]4(C)[C@H]3CC[C@]12C [progesterone]
- Emax [2, 20]: 78%
- Emax [3, 20]: 38%
